Assay results as given in ChEMBL document CHEMBL5370686, “Design of Novel Series of Antimalarial PMX Inhibitors with Increased Half-Life via Molecular Property Optimization” (ACS Med Chem Lett, 2023).
pIC50: −log10 of the molar value. Values after ≈ are worked out from the molar mass of the structure shown.

Assays:
[1] = Intrinsic clearance in human hepatocytes assessed per 10^6 cells at 0.5 uM measured after 120 min by HRMS method; format: ADME, cell-based, Hepatocyte; settings: read-out: CLH
[2] = Solubility of compound in FeSSIF at pH 5.8 incubated for 1 hr by LC/MS analysis; format: physicochemical
[3] = molecular target: Cathepsin D (Homo sapiens, UniProt P07339); assay: Inhibition of human Cathepsin D using Mca-GKPILFFRLK(Dnp)-D-R-NH2 as substrate preincubated for 30 mins followed by substrate addition and measured after 60 mins by FRET assay; format: toxicity
Cathepsin D, sequence (P07339 65-162 limits assumed): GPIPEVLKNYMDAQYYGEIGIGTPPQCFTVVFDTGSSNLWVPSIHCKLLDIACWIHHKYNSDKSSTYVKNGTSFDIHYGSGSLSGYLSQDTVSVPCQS
Cathepsin D, sequence (P07339 169-412 limits assumed): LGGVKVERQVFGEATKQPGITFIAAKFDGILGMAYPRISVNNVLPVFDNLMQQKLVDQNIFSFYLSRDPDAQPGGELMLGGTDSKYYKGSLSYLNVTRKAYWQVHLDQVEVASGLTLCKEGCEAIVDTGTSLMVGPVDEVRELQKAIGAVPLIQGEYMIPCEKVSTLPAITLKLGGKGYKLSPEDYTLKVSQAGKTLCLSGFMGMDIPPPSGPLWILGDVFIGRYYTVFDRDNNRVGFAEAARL

[4] = Lipophilicity, log D of the compound in octanol/phosphate buffer at pH 7.4 incubated for 90 mins by shake flask method based LC-MS analysis; format: physicochemical; settings: for logD at 1.5 h: octanol/phosphate buffer, pH 7.4
[5] = molecular target: Plasmepsin X (Plasmodium falciparum (isolate 3D7), UniProt Q8IAS0); assay: Inhibition of Plasmodium falciparum Plasmepsin X using Dabcyl-GSMLEVENDAEG-EDANS as substrate preincubated for 30 mins followed by substrate addition and measured every 2 mins for 30 mins by FRET assay
Plasmepsin X, sequence (Q8IAS0 whole entry): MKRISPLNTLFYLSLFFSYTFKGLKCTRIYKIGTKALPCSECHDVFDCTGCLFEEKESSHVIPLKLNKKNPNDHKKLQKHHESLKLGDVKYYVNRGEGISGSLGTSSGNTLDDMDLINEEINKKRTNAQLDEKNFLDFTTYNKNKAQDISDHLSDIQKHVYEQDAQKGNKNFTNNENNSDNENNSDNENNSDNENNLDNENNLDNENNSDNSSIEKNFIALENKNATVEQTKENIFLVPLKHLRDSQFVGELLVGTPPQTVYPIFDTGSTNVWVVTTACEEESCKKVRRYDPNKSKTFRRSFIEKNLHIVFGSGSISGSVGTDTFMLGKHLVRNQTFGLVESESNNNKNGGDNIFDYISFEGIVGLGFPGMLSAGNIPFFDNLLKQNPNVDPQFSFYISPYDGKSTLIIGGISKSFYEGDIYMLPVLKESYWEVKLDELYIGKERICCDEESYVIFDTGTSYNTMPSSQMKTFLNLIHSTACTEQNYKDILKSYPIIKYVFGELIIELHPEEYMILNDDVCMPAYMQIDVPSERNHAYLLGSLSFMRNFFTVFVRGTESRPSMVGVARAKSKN

[6] = system: Plasmodium falciparum; assay: Antimalarial activity against Plasmodium falciparum 3D7 by SYBR green 1 assay; format: functional, organism-based; settings: for pIC50: Plasmodium falciparum, 3D7
[7] = system: Cathepsin D versus Plasmepsin X; assay: Selectivity ratio of IC50 for human Cathepsin D to IC50 for Plasmodium falciparum Plasmepsin X; format: toxicity; settings: read-out: Ratio IC50
[8] = Drug level treated with (S)-6-(2,3'-dichloro-[1,1'-biphenyl]-3-yl)-2-imino-6-methyl-3-((2S,4S)-2-methyltetrahydro-2H-pyran-4-yl)tetrahydropyrimidin-4(1H)-one in human hepatocytes at 2 uM measured after 120 mins by UHPLC-MS analysis; format: ADME, cell-based, Hepatocyte
[9] = Apparent oral bioavailability in Sprague-Dawley rat plasma at 10 mg/kg administered via gavage by LC-MS/MS analysis; format: ADME, organism-based; settings: read-out: Fapp
[10] = Volume of distribution at steady state in Sprague-Dawley rat plasma at 1 mg/kg, iv administered via bolus by LC-MS/MS analysis; format: ADME, organism-based; settings: read-out: Vdss
[11] = AUC in Sprague-Dawley rat plasma at 1 mg/kg, iv administered via bolus at LC-MS/MS analysis; format: ADME, organism-based; parameters: dose 1 mg/kg, route iv
[12] = Clearance in Sprague-Dawley rat plasma at 1 mg/kg, iv administered via bolus by LC-MS/MS analysis; format: ADME, organism-based
[13] = Half-life in Sprague-Dawley rat plasma at 1 mg/kg, iv administered via bolus at LC-MS/MS analysis; format: ADME, organism-based
[14] = Tmax in Sprague-Dawley rat plasma at 10 mg/kg, po administered via gavage by LC-MS/MS analysis; format: ADME, organism-based
[15] = Cmax in Sprague-Dawley rat plasma at 10 mg/kg, po administered via gavage by LC-MS/MS analysis; format: ADME, organism-based; parameters: dose 10 mg/kg, route po
[16] = AUC in Sprague-Dawley rat plasma at 10 mg/kg, po administered via gavage by LC-MS/MS analysis; format: ADME, organism-based; parameters: dose 10 mg/kg, route po
[17] = Drug metabolism in human hepatocytes assessed as (S)-4-(2,3'-dichloro-[1,1'-biphenyl]-3-yl)-4-methyltetrahydropyrimidin-2(1H)-imine formation at 2 uM measured after 120 mins by UHPLC-MS analysis; format: ADME, cell-based, Hepatocyte; settings: 2 h
[18] = Drug metabolism in human hepatocytes at 2 uM measured after 120 mins by UHPLC-MS analysis; format: ADME, cell-based, Hepatocyte; settings: 2 h

Compound | hepatocyte CLint at 0.5 µM [1] [µL/min/1e6 cells] | solubility at 1 h [2] [µM] | pIC50 [3] | logD at 1.5 h [4] | pIC50 [5] | FIC50 [6] [nM] | pIC50 [6] | selectivity ratio [7] | Drug uptake [8] | bioavailability [9] [%] | Vd [10] [L/kg] | AUC [11] [µM·h] | clearance [12] [mL/min/kg] | half-life [13] [min] | Tmax [14] [h] | Cmax [15] [nM] | AUC [16] [µM·h] | logD ([4]; octanol/water, pH 7.4, 1.5 h, BLD = below limit of detection) | Drug metabolism [17] | Drug metabolism [18]
C[C@H]1C[C@@H](N2C(=N)N[C@](C)(c3cccc(-c4ccc5ncn(CC(F)(F)F)c5c4)c3Cl)CC2=O)CCO1 | 46 | 378 (≈ 202 µg/mL) | 8.41 | 2.5 | 7.95 | 12.4 | 7.58 | 0.3 | – | – | – | – | – | – | – | – | – | – | – | –
C[C@H]1C[C@@H](N2C(=N)N[C@](C)(c3cccc(-c4ccc(C5CC5)nc4)c3Cl)CC2=O)CCS1(=O)=O | < 3 | – | 5.57 | 2 | 7.89 | 27.1 | 7.06 | 206 | – | – | – | – | – | – | – | – | – | – | – | –
C[C@@H]1C[C@H](N2C(=N)N[C@](C)(c3cccc(-c4cccc(Cl)c4)c3Cl)CC2=O)CC[C@@H]1O | 25 | > 1500 | 7.33 | 3.5 | 8.00 | 40.9 | 6.61 | 4.7 | – | – | – | – | – | – | – | – | – | – | – | –
C[C@H]1C[C@@H](N2C(=N)N[C@](C)(c3cccc(-c4ccc(F)cc4F)c3Cl)CC2=O)CCO1 | 18 | 1010 (≈ 451 µg/mL) | 6.19 | 2.9 | 8.03 | 21.3 | 7.02 | 71 | – | – | – | – | – | – | – | – | – | – | – | –
C[C@H]1C[C@@H](N2C(=N)N[C@](C)(c3cccc(-c4ccc(OC(F)F)nc4)c3Cl)CC2=O)CCS1(=O)=O | < 3 | 1030 (≈ 543 µg/mL) | 6.23 | 2.1 | 7.97 | 23.4 | 7.07 | 53.9 | – | – | – | – | – | – | – | – | – | – | – | –
C[C@@]1(c2cccc(-c3cccc(Cl)c3)c2Cl)CCNC(=N)N1 | – | – | – | – | – | – | – | – | Active | – | – | – | – | – | – | – | – | – | – | –
C[C@H]1C[C@@H](N2C(=N)N[C@](C)(c3cccc(-c4cncc(Cl)c4)c3Cl)CC2=O)CCO1 | 75 | > 1500 | 7.49 | 2.5 | 8.06 | 15.2 | 7.67 | 3.5 | – | – | – | – | – | – | – | – | – | – | – | –
C[C@H]1C[C@@H](N2C(=N)N[C@](C)(c3cccc(-c4ccc(F)cc4F)c3Cl)CC2=O)CCS1(=O)=O | 3.3 | 1130 (≈ 558 µg/mL) | 6.44 | 2.4 | 7.99 | 16.7 | 7.13 | 36.5 | – | – | – | – | – | – | – | – | – | – | – | –
C[C@@]1(c2cccc(-c3ccc(F)cc3F)c2Cl)CC(=O)N([C@H]2CCC(F)(F)[C@@H](O)C2)C(=N)N1 | 4.7 | – | 6.40 | 2.4 | 7.63 | 32.5 | 6.55 | 17 | – | – | – | – | – | – | – | – | – | – | – | –
CN(C)[C@H]1C[C@@H](N2C(=N)N[C@](C)(c3cccc(-c4ccc(F)cc4F)c3Cl)CC2=O)C1 | 16 | > 1500 | 4.55 | 1.5 | 5.64 | 251.5 | 6.18 | 12.5 | – | – | – | – | – | – | – | – | – | – | – | –
C[C@H]1C[C@@H](N2C(=N)N[C@](C)(c3cccc(-c4ccc(OC(F)(F)F)nc4)c3Cl)CC2=O)CCS1(=O)=O | < 3 | 697 (≈ 380 µg/mL) | 5.81 | 2.4 | 7.95 | 27.9 | 6.97 | 140 | – | 29 | 13.1 | 1.6 | 20 | 552 | 4 | 423 | 4.68 | – | – | –
C[C@H]1C[C@@H](N2C(=N)N[C@](C)(c3cccc(-c4ccc(F)cc4F)c3Cl)CC2=O)CCN1C | 8.2 | > 1500 | 5.42 | 1.8 | 6.58 | 37.4 | 7.03 | 14.5 | – | – | – | – | – | – | – | – | – | – | – | –
C[C@H]1C[C@@H](N2C(=N)N[C@](C)(c3cccc(-c4ccccc4Cl)c3Cl)CC2=O)CCO1 | 29 | 562 (≈ 251 µg/mL) | 5.65 | 3 | 7.96 | 28.4 | 6.98 | 204 | – | – | – | – | – | – | – | – | – | – | – | –
C[C@@]1(c2cccc(-c3cccc(Cl)c3)c2Cl)CC(=O)N([C@H]2CCOC[C@@H]2O)C(=N)N1 | 8.2 | 1390 (≈ 624 µg/mL) | 6.65 | 2.4 | 7.25 | 135.6 | 6.49 | 3.9 | – | – | – | – | – | – | – | – | – | – | – | –
C[C@H]1C[C@@H](N2C(=N)N[C@](C)(c3cccc(NC(=O)c4cccc(C#N)c4)c3Cl)CC2=O)CCO1 | 4 | 1020 (≈ 490 µg/mL) | – | 1.3 | 8.12 | 7.7 | 8.08 | 555 | – | 18 | – | – | – | – | – | – | – | – | – | –
C[C@H]1C[C@@H](N2C(=N)N[C@](C)(c3cccc(-c4ccc(OC(F)(F)F)cc4Cl)c3Cl)CC2=O)CCO1 | < 3 | 833 (≈ 442 µg/mL) | 5.80 | – | 8.02 | 0.8 | 7.11 | 176 | – | – | – | – | – | – | – | – | – | Bld | – | –
C[C@H]1C[C@@H](N2C(=N)N[C@](C)(c3cccc(-c4cnn5cccnc45)c3Cl)CC2=O)CCO1 | 18 | > 1500 | 5.89 | 1.2 | 7.65 | 131.3 | 6.86 | 59 | – | – | – | – | – | – | – | – | – | – | – | –
C[C@H]1C[C@@H](N2C(=N)N[C@](C)(c3cccc(-c4cccc(Cl)c4)c3Cl)CC2=O)CCO1 | 26 | 664 (≈ 296 µg/mL) | 7.97 | 3.7 | 8.11 | 16.2 | 7.03 | 1.3 | – | – | – | – | – | – | – | – | – | – | Metabolite_Detected | Metabolite_Detected
C[C@H]1C[C@@H](N2C(=N)N[C@](C)(c3cccc(-c4ccc(Cl)cc4Cl)c3Cl)CC2=O)CCO1 | 5.7 | 69 (≈ 33.2 µg/mL) | 6.11 | 3.4 | 8.28 | 3.5 | 7.18 | 154 | – | – | – | – | – | – | – | – | – | – | – | –
